Legend:
IGROV-1 = assay: Growth inhibition of human IGROV1 cells at 10 uM incubated for 48 hrs by sulforhodamine B assay relative to control; format: functional; conditions: IGROV-1, 48 h, read-out: GI
Hs-578T = assay: Growth inhibition of human Hs578T cells at 10 uM incubated for 48 hrs by sulforhodamine B assay relative to control; format: functional; conditions: read-out: GI
[1] = target: Vascular endothelial growth factor receptor 2 (Homo sapiens, UniProt P35968); assay: Inhibition of human N-terminal GST tagged VEGFR-2 expressed in baculovirus infected Sf9 cells using poly (Glu,Tyr) 4:1 as substrate in presence of ATP by Kinase-Glo luminescence assay
CCRF-CEM = assay: Growth inhibition of human CCRF-CEM cells at 10 uM incubated for 48 hrs by sulforhodamine B assay relative to control; format: functional; conditions: read-out: GI
A498 = assay: Growth inhibition of human A498 cells at 10 uM incubated for 48 hrs by sulforhodamine B assay relative to control; format: functional; conditions: A498, 48 h, read-out: GI
OVCAR-5 = assay: Growth inhibition of human OVCAR5 cells at 10 uM incubated for 48 hrs by sulforhodamine B assay relative to control; format: functional; conditions: OVCAR-5, 48 h, read-out: GI
OVCAR-4 = assay: Growth inhibition of human OVCAR4 cells at 10 uM incubated for 48 hrs by sulforhodamine B assay relative to control; format: functional; conditions: OVCAR-4, 48 h, read-out: GI
MCF7 [2] = assay: Cytotoxicity against human MCF7 cells expressing VEGFR2 and wild type BRAF measured after 48 hrs by sulforhodamine B assay; format: functional, cell-based; conditions: MCF7, 48 h
HOP-92 = assay: Growth inhibition of human HOP92 cells at 10 uM incubated for 48 hrs by sulforhodamine B assay relative to control; format: functional; conditions: HOP-92, 48 h, read-out: GI
HCT-116 = assay: Growth inhibition of human HCT116 cells at 10 uM incubated for 48 hrs by sulforhodamine B assay relative to control; format: functional; conditions: HCT-116, 48 h, read-out: GI
HOP-62 = assay: Growth inhibition of human HOP62 cells at 10 uM incubated for 48 hrs by sulforhodamine B assay relative to control; format: functional; conditions: HOP-62, 48 h, read-out: GI
NCI-H23 = assay: Growth inhibition of human NCI-H23 cells at 10 uM incubated for 48 hrs by sulforhodamine B assay relative to control; format: functional; conditions: NCI-H23, 48 h, read-out: GI
SK-OV-3 = assay: Growth inhibition of human SKOV3 cells at 10 uM incubated for 48 hrs by sulforhodamine B assay relative to control; format: functional; conditions: SK-OV-3, 48 h, read-out: GI
UO-31 = assay: Growth inhibition of human UO31 cells at 10 uM incubated for 48 hrs by sulforhodamine B assay relative to control; format: functional; conditions: UO-31, 48 h, read-out: GI
ACHN = assay: Growth inhibition of human ACHN cells at 10 uM incubated for 48 hrs by sulforhodamine B assay relative to control; format: functional; conditions: read-out: GI
MDA-MB-468 = assay: Growth inhibition of human MDA-MB-468 cells at 10 uM incubated for 48 hrs by sulforhodamine B assay relative to control; format: functional; conditions: MDA-MB-468, 48 h, read-out: GI
HCT-15 = assay: Growth inhibition of human HCT15 cells at 10 uM incubated for 48 hrs by sulforhodamine B assay relative to control; format: functional; conditions: HCT-15, 48 h, read-out: GI
A549 = assay: Growth inhibition of human A549/ATCC cells at 10 uM incubated for 48 hrs by sulforhodamine B assay relative to control; format: functional; conditions: A549, 48 h, read-out: GI
PC-3 = assay: Growth inhibition of human PC3 cells at 10 uM incubated for 48 hrs by sulforhodamine B assay relative to control; format: functional; conditions: PC-3, 48 h, read-out: GI
MOLT-4 = assay: Growth inhibition of human MOLT4 cells at 10 uM incubated for 48 hrs by sulforhodamine B assay relative to control; format: functional; conditions: MOLT-4, 48 h, read-out: GI
T47D [3] = assay: Cytotoxicity against human T47D cells expressing wild type BRAF measured after 48 hrs by sulforhodamine B assay; format: functional, cell-based
MCF7 [4] = assay: Inhibition of VEGFR2 level in human MCF7 cells at 10 uM measured after 48 hrs by ELISA relative to control; format: functional; conditions: MCF7, 48 h
CAKI-1 = assay: Growth inhibition of human Caki1 cells at 10 uM incubated for 48 hrs by sulforhodamine B assay relative to control; format: functional; conditions: CAKI-1, 48 h, read-out: GI
MDA-MB-231 = assay: Growth inhibition of human MDA-MB-231 cells at 10 uM incubated for 48 hrs by sulforhodamine B assay relative to control; format: functional; conditions: MDA-MB-231, 48 h, read-out: GI
SN12C = assay: Growth inhibition of human SN12C cells at 10 uM incubated for 48 hrs by sulforhodamine B assay relative to control; format: functional; conditions: read-out: GI
EKVX = assay: Growth inhibition of human EKVX cells at 10 uM incubated for 48 hrs by sulforhodamine B assay relative to control; format: functional; conditions: read-out: GI
Malme-3M = assay: Growth inhibition of human MALME-3M cells at 10 uM incubated for 48 hrs by sulforhodamine B assay relative to control; format: functional; conditions: read-out: GI
MCF7 [5] = assay: Growth inhibition of human MCF7 cells at 10 uM incubated for 48 hrs by sulforhodamine B assay relative to control; format: functional; conditions: MCF7, 48 h, read-out: GI
K562 = assay: Growth inhibition of human K562 cells at 10 uM incubated for 48 hrs by sulforhodamine B assay relative to control; format: functional; conditions: K562, 48 h, read-out: GI
UACC-62 = assay: Growth inhibition of human UACC62 cells at 10 uM incubated for 48 hrs by sulforhodamine B assay relative to control; format: functional; conditions: UACC-62, 48 h, read-out: GI
NCI/ADR-RES = assay: Growth inhibition of human NCI/ADR-RES cells at 10 uM incubated for 48 hrs by sulforhodamine B assay relative to control; format: functional; conditions: read-out: GI
RPMI-8226 = assay: Growth inhibition of human RPMI8226 cells at 10 uM incubated for 48 hrs by sulforhodamine B assay relative to control; format: functional; conditions: RPMI-8226, 48 h, read-out: GI
SF-539 = assay: Growth inhibition of human SF539 cells at 10 uM incubated for 48 hrs by sulforhodamine B assay relative to control; format: functional; conditions: SF-539, 48 h, read-out: GI
NCI-H522 = assay: Growth inhibition of human NCI-H522 cells at 10 uM incubated for 48 hrs by sulforhodamine B assay relative to control; format: functional; conditions: NCI-H522, 48 h, read-out: GI
T47D [6] = assay: Growth inhibition of human T47D cells at 10 uM incubated for 48 hrs by sulforhodamine B assay relative to control; format: functional; conditions: read-out: GI
NCI-H226 = assay: Growth inhibition of human NCI-H226 cells at 10 uM incubated for 48 hrs by sulforhodamine B assay relative to control; format: functional; conditions: NCI-H226, 48 h, read-out: GI
DU-145 = assay: Growth inhibition of human DU145 cells at 10 uM incubated for 48 hrs by sulforhodamine B assay relative to control; format: functional; conditions: DU-145, 48 h, read-out: GI
SR = assay: Growth inhibition of human SR cells at 10 uM incubated for 48 hrs by sulforhodamine B assay relative to control; format: functional; conditions: read-out: GI
KM12 = assay: Growth inhibition of human KM12 cells at 10 uM incubated for 48 hrs by sulforhodamine B assay relative to control; format: functional; conditions: KM12, 48 h, read-out: GI
[7] = target: Serine/threonine-protein kinase B-raf (Homo sapiens, UniProt P15056); assay: Inhibition of human wild type BRAF by Kinase-Glo luminescence assay
COLO 205 = assay: Growth inhibition of human COLO205 cells at 10 uM incubated for 48 hrs by sulforhodamine B assay relative to control; format: functional; conditions: COLO 205, 48 h, read-out: GI
SW-620 = assay: Growth inhibition of human SW620 cells at 10 uM incubated for 48 hrs by sulforhodamine B assay relative to control; format: functional; conditions: SW-620, 48 h, read-out: GI
HT-29 = assay: Growth inhibition of human HT-29 cells at 10 uM incubated for 48 hrs by sulforhodamine B assay relative to control; format: functional; conditions: HT-29, 48 h, read-out: GI

Vascular endothelial growth factor receptor 2, sequence (P35968 whole entry): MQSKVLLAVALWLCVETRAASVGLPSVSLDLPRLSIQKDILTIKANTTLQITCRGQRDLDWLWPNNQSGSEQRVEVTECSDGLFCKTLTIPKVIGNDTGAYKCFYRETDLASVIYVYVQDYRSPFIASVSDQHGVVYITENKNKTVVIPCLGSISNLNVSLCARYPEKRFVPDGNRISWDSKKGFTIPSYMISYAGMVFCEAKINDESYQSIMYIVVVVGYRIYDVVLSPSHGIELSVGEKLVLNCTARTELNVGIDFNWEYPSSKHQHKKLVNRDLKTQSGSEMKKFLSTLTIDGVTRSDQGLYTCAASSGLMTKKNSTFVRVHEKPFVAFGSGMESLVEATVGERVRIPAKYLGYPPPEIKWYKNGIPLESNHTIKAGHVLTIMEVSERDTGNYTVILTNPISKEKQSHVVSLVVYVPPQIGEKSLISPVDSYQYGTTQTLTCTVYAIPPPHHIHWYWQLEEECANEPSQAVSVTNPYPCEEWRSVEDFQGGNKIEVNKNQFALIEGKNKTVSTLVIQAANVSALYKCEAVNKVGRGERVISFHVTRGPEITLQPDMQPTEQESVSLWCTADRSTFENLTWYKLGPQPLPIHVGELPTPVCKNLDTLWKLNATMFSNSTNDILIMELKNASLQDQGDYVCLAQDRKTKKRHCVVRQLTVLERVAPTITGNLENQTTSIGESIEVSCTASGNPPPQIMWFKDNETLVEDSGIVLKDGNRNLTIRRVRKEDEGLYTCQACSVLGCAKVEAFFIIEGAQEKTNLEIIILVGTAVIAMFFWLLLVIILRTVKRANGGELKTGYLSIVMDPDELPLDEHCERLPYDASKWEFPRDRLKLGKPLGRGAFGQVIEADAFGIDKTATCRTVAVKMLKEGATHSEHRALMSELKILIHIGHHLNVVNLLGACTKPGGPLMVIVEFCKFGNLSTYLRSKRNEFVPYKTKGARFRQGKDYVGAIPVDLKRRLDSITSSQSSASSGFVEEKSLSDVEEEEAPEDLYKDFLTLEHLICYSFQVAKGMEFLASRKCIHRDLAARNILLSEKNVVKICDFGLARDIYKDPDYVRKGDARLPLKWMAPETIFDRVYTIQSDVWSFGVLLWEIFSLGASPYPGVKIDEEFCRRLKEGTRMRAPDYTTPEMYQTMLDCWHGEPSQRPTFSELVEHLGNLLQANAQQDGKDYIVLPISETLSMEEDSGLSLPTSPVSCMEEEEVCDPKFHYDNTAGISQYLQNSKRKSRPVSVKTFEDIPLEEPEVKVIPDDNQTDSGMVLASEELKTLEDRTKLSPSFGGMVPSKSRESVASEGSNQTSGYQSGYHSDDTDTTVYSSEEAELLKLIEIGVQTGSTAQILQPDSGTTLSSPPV
Serine/threonine-protein kinase B-raf, sequence (P15056 whole entry): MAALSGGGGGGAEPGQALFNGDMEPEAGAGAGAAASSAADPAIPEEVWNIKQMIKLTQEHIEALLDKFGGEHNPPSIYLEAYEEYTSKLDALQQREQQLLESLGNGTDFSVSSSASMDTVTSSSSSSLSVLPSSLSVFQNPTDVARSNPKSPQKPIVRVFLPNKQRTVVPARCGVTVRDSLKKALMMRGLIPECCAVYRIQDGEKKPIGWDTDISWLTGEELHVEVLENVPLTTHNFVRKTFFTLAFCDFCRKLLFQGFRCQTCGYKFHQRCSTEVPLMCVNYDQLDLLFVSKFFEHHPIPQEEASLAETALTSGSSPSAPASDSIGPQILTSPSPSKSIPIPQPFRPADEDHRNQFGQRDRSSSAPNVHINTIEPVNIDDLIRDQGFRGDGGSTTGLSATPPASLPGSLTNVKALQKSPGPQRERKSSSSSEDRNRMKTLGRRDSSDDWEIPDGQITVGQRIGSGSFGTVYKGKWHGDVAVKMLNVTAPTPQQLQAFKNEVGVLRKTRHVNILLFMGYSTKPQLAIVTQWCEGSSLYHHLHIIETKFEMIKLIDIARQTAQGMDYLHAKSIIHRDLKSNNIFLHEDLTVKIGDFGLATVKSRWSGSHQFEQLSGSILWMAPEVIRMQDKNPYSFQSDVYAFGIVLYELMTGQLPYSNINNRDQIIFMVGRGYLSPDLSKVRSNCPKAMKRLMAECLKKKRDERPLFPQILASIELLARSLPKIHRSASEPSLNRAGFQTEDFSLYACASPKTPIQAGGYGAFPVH

IC50 [1]	Compound	inhibition of growth at 10 µM (IGROV-1)	inhibition of growth at 10 µM (CCRF-CEM)	inhibition of growth at 10 µM (A498)	IC50 (MCF7 [2])	inhibition of growth at 10 µM (HOP-92)	inhibition of growth at 10 µM (HCT-116)	inhibition of growth at 10 µM (HOP-62)	inhibition of growth at 10 µM (NCI-H23)	inhibition of growth at 10 µM (SK-OV-3)	inhibition of growth at 10 µM (UO-31)	inhibition of growth at 10 µM (ACHN)	inhibition of growth at 10 µM (MDA-MB-468)	inhibition of growth at 10 µM (HCT-15)	inhibition of growth at 10 µM (A549)	inhibition of growth at 10 µM (PC-3)	inhibition of growth at 10 µM (CAKI-1)	inhibition of growth at 10 µM (MDA-MB-231)	inhibition of growth at 10 µM (SN12C)	inhibition of growth at 10 µM (Malme-3M)	further results
740 nM	CC(=O)c1cccc(Nc2ccnc(SCC(=O)c3ccc(-c4ccccc4)cc3)n2)c1	20%	28%	40%	24.4 µM	17%	14%	19%	18%	22%	40%	12%	14%	15%	14%	25%	23%	41%	13%	17%	inhibition of growth at 10 µM (Hs-578T): 14%; inhibition of growth at 10 µM (OVCAR-5): 12%; inhibition of growth at 10 µM (OVCAR-4): 12%; inhibition of growth at 10 µM (MOLT-4): 29%; IC50 (T47D [3]): 12.1 µM; inhibition at 10 µM (MCF7 [4]): 36%; inhibition of growth at 10 µM (EKVX): 15%; inhibition of growth at 10 µM (MCF7 [5]): 12%; inhibition of growth at 10 µM (K562): 16%; inhibition of growth at 10 µM (UACC-62): 24%; inhibition of growth at 10 µM (NCI/ADR-RES): 14%; inhibition of growth at 10 µM (RPMI-8226): 34%; inhibition of growth at 10 µM (SF-539): 11%; inhibition of growth at 10 µM (NCI-H522): 38%; inhibition of growth at 10 µM (T47D [6]): 49%; inhibition of growth at 10 µM (NCI-H226): 22%
280 nM	CC(=O)c1ccc(Nc2ccnc(SCC(=O)c3ccc(-c4ccccc4)cc3)n2)cc1	14%	22%	55%	66.1 µM	21%	42%	13%	10%	11%	27%	26%	13%	13%	20%	19%	16%	22%	11%	14%	inhibition of growth at 10 µM (DU-145): 16%; inhibition of growth at 10 µM (SR): 41%; inhibition of growth at 10 µM (K562): 10%; inhibition of growth at 10 µM (KM12): 24%; IC50 [7]: 1050 nM; inhibition of growth at 10 µM (UACC-62): 20%; inhibition of growth at 10 µM (COLO 205): 11%; inhibition of growth at 10 µM (RPMI-8226): 26%; inhibition of growth at 10 µM (SF-539): 13%; inhibition of growth at 10 µM (NCI-H522): 22%; inhibition of growth at 10 µM (T47D [6]): 29%; inhibition of growth at 10 µM (SW-620): 26%; inhibition of growth at 10 µM (HT-29): 16%; inhibition of growth at 10 µM (NCI-H226): 11%

Source: ChEMBL document CHEMBL4396916, “Novel potent substituted 4-amino-2-thiopyrimidines as dual VEGFR-2 and BRAF kinase inhibitors” (Eur J Med Chem, 2019)
